{"source": "paper PMC9085577", "about": "“Discovery of a Potent and Orally Active Dual GPBAR1/CysLT1R Modulator for the Treatment of Metabolic Fatty Liver Disease” (Frontiers in Pharmacology, 2022)", "system": "liver transcriptome", "assay": "AmpliSeq liver transcriptome of HFD-F mice", "format": "in vivo", "source_text": "C57BL/6J male mice were fed a high fat diet (HFD) containing 59 KJ% fat plus 1% cholesterol, w/o sugar (ssniff ® EF R/M acc. D12330 mod. 22,7 ME/kg) and fructose (HFD-F) in drinking water (42 g/L), or normal chow diet for 61 days. Food intake was estimated as the difference of weight between the offered and the remnant amount of food at 3-days intervals. The food was provided as pressed pellets and the residual spillage was not considered. After 7 days, HFD-F mice were randomized to receive HFD-F alone or in combination with compound 2 (30 mg/kg/day) by gavage until the end of the experiment. Doses of each agent were chosen according to previously published data. Mice were housed under controlled temperature (22°C) and photoperiods (12:12-h light/dark cycle), allowed unrestricted access to standard mouse chow and tap water. The experimental protocol was approved by the Animal Care and Use Committee of the University of Perugia and by the Italian Minister of Health and Istituto Superiore di Sanità (Italy) and was in agreement with the European guidelines for use of experimental animals (permission n. 583/2017-PR). The general health of the animals was monitored daily by the Veterinarian in the animal facility. At the day of sacrifice, fed mice were deeply anesthetized with a mixture of tiletamine hypochloride and zolazepam hypochloride/xylazine at a dose of 50/5 mg/kg and sacrificed before 12 a.m.\nHigh-quality RNA was extracted from mice livers, using the Direct-zol™ RNA MiniPrep w/Zymo-Spin™ IIC Columns (Zymo Research, Irvine, CA) according to the manufacturer’s instructions. RNA quality and quantity were assessed with the Qubit® RNA HS Assay Kit and a Qubit 3.0 fluorometer (Invitrogen, Carlsbad, CA) followed by agarose gel electrophoresis. Libraries were generated using the Ion AmpliSeq™ Transcriptome Mouse Gene Expression Core Panel and Chef-Ready Kit (Comprehensive evaluation of AmpliSeq transcriptome, a whole transcriptome RNA sequencing methodology) (Thermo Fisher Scientific, Waltham, MA). Briefly, 10 ng of RNA was reverse transcribed with SuperScript™ Vilo™ cDNA Synthesis Kit (Thermo Fisher Scientific, Waltham, MA) before library preparation on the Ion Chef™ instrument (Thermo Fisher Scientific, Waltham, MA). The resulting cDNA was amplified to prepare barcoded libraries using the Ion Code™ PCR Plate, and the Ion AmpliSeq™ Transcriptome Mouse Gene Expression Core Panel (Thermo Fisher Scientific, Waltham, MA), Chef-Ready Kit, according to the manufacturer’s instructions. Barcoded libraries were combined to a final concentration of 100 p.m., and used to prepare Template-Positive Ion Sphere™ (Thermo Fisher Scientific, Waltham, MA) Particles to load on Ion 540™ Chips, using the Ion 540™ Kit-Chef (Thermo Fisher Scientific, Waltham, MA). Sequencing was performed on an Ion S5™ Sequencer with Torrent Suite™ Software v6 (Thermo Fisher Scientific, Waltham, MA). The analyses were performed with a range of fold <−2 and >+2 and a p value <0.05, using Transcriptome Analysis Console Software (version 4.0.1), certified for AmpliSeq analysis (Thermo-Fisher). The transcriptomic data have been deposited as dataset on Mendeley data repository (reference number linking to the repository: Fiorucci, Stefano; Biagioli, Michele; Marchianò, Silvia; Di Giorgio, Cristina (2021), “Discovery of potent dual GPBAR1/CysLT1R modulator for the treatment of metabolic fatty liver disease,” Mendeley Data, V1, doi: 10.17632/6dnrk9fc72.1).", "key": {"[1]": {"conditions": "HFD-F mice, 30 mg/kg/day by gavage"}, "[2]": {"conditions": "in comparison to untreated mice"}}, "data": [{"smiles": "O=C(O)c1cccc(-c2ccc(OCc3ccc4ccccc4n3)cc2)c1", "note": "[Compound 2, 4'-(quinolin-2-ylmethoxy)-[1,1′-biphenyl]-3-carboxylic acid]", "values": [{"measurement": "liver expression of Alox5", "setting": "[1]", "value": "downregulated"}, {"measurement": "liver expression of Col1α1", "setting": "[1]", "value": "reversed"}, {"measurement": "liver expression of Elov5, Mogat1, fabp2, Cd36, Me1, and Cidea", "setting": "[1]", "value": "reduced significantly"}, {"measurement": "liver expression of FXR and its target genes Shp and Bsep", "setting": "[1]", "value": "no effect"}, {"measurement": "liver expression of Fasn", "setting": "[1]", "value": "reduced significantly"}, {"measurement": "liver expression of Fgf21", "setting": "[1]", "value": "decreased"}, {"measurement": "liver expression of Srepb1f", "setting": "[1]", "value": "no effect"}, {"measurement": "liver expression of αSma", "setting": "[1]", "value": "reversed"}, {"measurement": "liver expression of Cyp7a1", "setting": "HFD-F mice, 30 mg/kg/day by gavage, 30 mg/kg/day", "value": "potently increased"}, {"measurement": "number of liver genes modulated compared to HFD-F alone", "setting": "fold change <−2 or >2, p value < 0.05", "value": 154}, {"measurement": "liver expression of Pparα", "setting": "[2]", "value": "increased"}, {"measurement": "liver expression of Pparγ", "setting": "[2]", "value": "increased"}, {"measurement": "1810011O10Rik transcript Avg (log2)", "setting": "liver, HFD + compound 2", "value": 5.22, "unit": "log2"}, {"measurement": "2310001K24Rik transcript Avg (log2)", "setting": "liver, HFD + compound 2", "value": 2.22, "unit": "log2"}, {"measurement": "2310039H08Rik transcript Avg (log2)", "setting": "liver, HFD + compound 2", "value": 3.92, "unit": "log2"}, {"measurement": "4833423E24Rik transcript Avg (log2)", "setting": "liver, HFD + compound 2", "value": 1.1, "unit": "log2"}, {"measurement": "6430573F11Rik transcript Avg (log2)", "setting": "liver, HFD + compound 2", "value": 1.17, "unit": "log2"}, {"measurement": "AW549542 transcript Avg (log2)", "setting": "liver, HFD + compound 2", "value": 6.06, "unit": "log2"}, {"measurement": "Abcb1a transcript Avg (log2)", "setting": "liver, HFD + compound 2", "value": 2.24, "unit": "log2"}, {"measurement": "Acod1 transcript Avg (log2)", "setting": "liver, HFD + compound 2", "value": 0.24, "unit": "log2"}, {"measurement": "Acot3 transcript Avg (log2)", "setting": "liver, HFD + compound 2", "value": 1.85, "unit": "log2"}, {"measurement": "Adam8 transcript Avg (log2)", "setting": "liver, HFD + compound 2", "value": 0.63, "unit": "log2"}, {"measurement": "Adam11 transcript Avg (log2)", "setting": "liver, HFD + compound 2", "value": 7.79, "unit": "log2"}, {"measurement": "Anxa2 transcript Avg (log2)", "setting": "liver, HFD + compound 2", "value": 4.37, "unit": "log2"}, {"measurement": "Apcs transcript Avg (log2)", "setting": "liver, HFD + compound 2", "value": 6.13, "unit": "log2"}, {"measurement": "Arntl transcript Avg (log2)", "setting": "liver, HFD + compound 2", "value": 1.77, "unit": "log2"}, {"measurement": "Arsg transcript Avg (log2)", "setting": "liver, HFD + compound 2", "value": 4.36, "unit": "log2"}, {"measurement": "Atp1a3 transcript Avg (log2)", "setting": "liver, HFD + compound 2", "value": 0.63, "unit": "log2"}, {"measurement": "Aurka transcript Avg (log2)", "setting": "liver, HFD + compound 2", "value": 0.66, "unit": "log2"}, {"measurement": "Avpr1a transcript Avg (log2)", "setting": "liver, HFD + compound 2", "value": 3.76, "unit": "log2"}, {"measurement": "Bcat1 transcript Avg (log2)", "setting": "liver, HFD + compound 2", "value": 0, "unit": "log2"}, {"measurement": "C920009B18Rik transcript Avg (log2)", "setting": "liver, HFD + compound 2", "value": 0.43, "unit": "log2"}, {"measurement": "Cabyr transcript Avg (log2)", "setting": "liver, HFD + compound 2", "value": 3.88, "unit": "log2"}, {"measurement": "Capn11 transcript Avg (log2)", "setting": "liver, HFD + compound 2", "value": 2.07, "unit": "log2"}, {"measurement": "Ccl2 transcript Avg (log2)", "setting": "liver, HFD + compound 2", "value": 2.2, "unit": "log2"}, {"measurement": "Ccl3 transcript Avg (log2)", "setting": "liver, HFD + compound 2", "value": 1.68, "unit": "log2"}, {"measurement": "Ccl4 transcript Avg (log2)", "setting": "liver, HFD + compound 2", "value": 0.13, "unit": "log2"}, {"measurement": "Ccl7 transcript Avg (log2)", "setting": "liver, HFD + compound 2", "value": 0.8, "unit": "log2"}, {"measurement": "Ccl9 transcript Avg (log2)", "setting": "liver, HFD + compound 2", "value": 5.17, "unit": "log2"}, {"measurement": "Cd9 transcript Avg (log2)", "setting": "liver, HFD + compound 2", "value": 5.07, "unit": "log2"}, {"measurement": "Cd14 transcript Avg (log2)", "setting": "liver, HFD + compound 2", "value": 2.99, "unit": "log2"}, {"measurement": "Cd36 transcript Avg (log2)", "setting": "liver, HFD + compound 2", "value": 4.05, "unit": "log2"}, {"measurement": "Cd63 transcript Avg (log2)", "setting": "liver, HFD + compound 2", "value": 2.97, "unit": "log2"}, {"measurement": "Cdk1 transcript Avg (log2)", "setting": "liver, HFD + compound 2", "value": 1.66, "unit": "log2"}, {"measurement": "Cdkl2 transcript Avg (log2)", "setting": "liver, HFD + compound 2", "value": 1.24, "unit": "log2"}, {"measurement": "Cdkn1a transcript Avg (log2)", "setting": "liver, HFD + compound 2", "value": 1.4, "unit": "log2"}, {"measurement": "Cdkn3 transcript Avg (log2)", "setting": "liver, HFD + compound 2", "value": 0.2, "unit": "log2"}, {"measurement": "Ces2b transcript Avg (log2)", "setting": "liver, HFD + compound 2", "value": 4.12, "unit": "log2"}, {"measurement": "Cetn4 transcript Avg (log2)", "setting": "liver, HFD + compound 2", "value": 1.14, "unit": "log2"}, {"measurement": "Chka transcript Avg (log2)", "setting": "liver, HFD + compound 2", "value": 4.93, "unit": "log2"}, {"measurement": "Chrna4 transcript Avg (log2)", "setting": "liver, HFD + compound 2", "value": 2.32, "unit": "log2"}, {"measurement": "Cidea transcript Avg (log2)", "setting": "liver, HFD + compound 2", "value": 0.78, "unit": "log2"}, {"measurement": "Cidec transcript Avg (log2)", "setting": "liver, HFD + compound 2", "value": 5.15, "unit": "log2"}, {"measurement": "Cirbp transcript Avg (log2)", "setting": "liver, HFD + compound 2", "value": 6.69, "unit": "log2"}, {"measurement": "Ckap2 transcript Avg (log2)", "setting": "liver, HFD + compound 2", "value": 0.6, "unit": "log2"}, {"measurement": "Clec4e transcript Avg (log2)", "setting": "liver, HFD + compound 2", "value": 0.33, "unit": "log2"}, {"measurement": "Clec4d transcript Avg (log2)", "setting": "liver, HFD + compound 2", "value": 0.27, "unit": "log2"}, {"measurement": "Col27a1 transcript Avg (log2)", "setting": "liver, HFD + compound 2", "value": 6.19, "unit": "log2"}, {"measurement": "Csf3 transcript Avg (log2)", "setting": "liver, HFD + compound 2", "value": 0.06, "unit": "log2"}, {"measurement": "Cxcl2 transcript Avg (log2)", "setting": "liver, HFD + compound 2", "value": 1, "unit": "log2"}, {"measurement": "Cyp1a2 transcript Avg (log2)", "setting": "liver, HFD + compound 2", "value": 11.93, "unit": "log2"}, {"measurement": "Cyp2a5 transcript Avg (log2)", "setting": "liver, HFD + compound 2", "value": 10.52, "unit": "log2"}, {"measurement": "Cyp7a1 transcript Avg (log2)", "setting": "liver, HFD + compound 2", "value": 9.39, "unit": "log2"}, {"measurement": "Cyp17a1 transcript Avg (log2)", "setting": "liver, HFD + compound 2", "value": 4.11, "unit": "log2"}, {"measurement": "D17H6S56E-5 transcript Avg (log2)", "setting": "liver, HFD + compound 2", "value": 1.96, "unit": "log2"}, {"measurement": "Dbp transcript Avg (log2)", "setting": "liver, HFD + compound 2", "value": 7.05, "unit": "log2"}, {"measurement": "Defb1 transcript Avg (log2)", "setting": "liver, HFD + compound 2", "value": 1.19, "unit": "log2"}, {"measurement": "Derl2 transcript Avg (log2)", "setting": "liver, HFD + compound 2", "value": 4.75, "unit": "log2"}, {"measurement": "Dhrs9 transcript Avg (log2)", "setting": "liver, HFD + compound 2", "value": 1.65, "unit": "log2"}, {"measurement": "Dtx4 transcript Avg (log2)", "setting": "liver, HFD + compound 2", "value": 2.62, "unit": "log2"}, {"measurement": "Dusp8 transcript Avg (log2)", "setting": "liver, HFD + compound 2", "value": 1.5, "unit": "log2"}, {"measurement": "Egr1 transcript Avg (log2)", "setting": "liver, HFD + compound 2", "value": 3.52, "unit": "log2"}, {"measurement": "Ell transcript Avg (log2)", "setting": "liver, HFD + compound 2", "value": 5.75, "unit": "log2"}, {"measurement": "Elovl3 transcript Avg (log2)", "setting": "liver, HFD + compound 2", "value": 8.94, "unit": "log2"}, {"measurement": "Elovl5 transcript Avg (log2)", "setting": "liver, HFD + compound 2", "value": 9.72, "unit": "log2"}, {"measurement": "Ephb2 transcript Avg (log2)", "setting": "liver, HFD + compound 2", "value": 0.78, "unit": "log2"}, {"measurement": "Epm2aip1 transcript Avg (log2)", "setting": "liver, HFD + compound 2", "value": 2.63, "unit": "log2"}, {"measurement": "Fam57a transcript Avg (log2)", "setting": "liver, HFD + compound 2", "value": 2.02, "unit": "log2"}, {"measurement": "Fgf21 transcript Avg (log2)", "setting": "liver, HFD + compound 2", "value": 2.1, "unit": "log2"}, {"measurement": "Fxyd2 transcript Avg (log2)", "setting": "liver, HFD + compound 2", "value": 0.72, "unit": "log2"}]}]}
